Measurements reported in publication PMC12282101, “Heat shock protein 90 chaperone activity is required for hepatitis A virus replication” (Journal of Virology, 2025).
Entries after “also recorded” stand apart in the source; their conditions may differ. Where a name gives a salt, the structure may show the parent alone. Read-outs that look alike come from different tables or passages of the source.

Key:
18f-NLuc reporter virus [1] = assay: microbe, parasite or virus in culture; type: cell-based, Hepatitis A virus; conditions: for activity at 10 µM: Hepatovirus A, Huh-7.5.1, 72 h, read-out: Normalized HAV production
Huh-7.5.1 cells [2] = conditions: 10 µM
HM175/18f virus [3] = conditions: for IC50: read-out: IC50, HAV replication by RT-qPCR
in vitro = conditions: human
HM175/18f virus [4] = assay: microbe, parasite or virus in culture; conditions: Hepatovirus A, Huh-7.5.1, read-out: IC50, HAV replication by RT-qPCR
18f-NLuc reporter virus [5] = conditions: for IC50: read-out: IC50, HAV replication by NLuc
Huh-7.5.1 cells [6] = conditions: Huh-7.5 or Huh-7.5.1 cells, RT-qPCR experiments
HAV [7] = assay: microbe, parasite or virus in culture; type: cell-based, Hepatitis A virus; conditions: PH5CH8 cells; read-out: IC50, HAV replication by RT-qPCR
18f-NLuc reporter virus [8] = assay: microbe, parasite or virus in culture; type: cell-based, Hepatitis A virus; conditions: 293T cells; read-out: IC50, HAV replication by NLuc
Method: Cells were lysed in 1× passive lysis buffer (Promega, #E1941) for 15 min at room temperature, then lysates were transferred to opaque white 96-well plates (Corning, #3912). NLuc activity was quantified using the NLuc GLOW Assay kit (Nanolight Technology, #325), and FLuc assays were carried out with the Luciferase Assay System (Promega, E1500). Luminescence was measured using a Biotek Synergy II multi-mode plate reader (BioTek Instruments).

[9] = test system: mouse-passaged HM175 strain of HAV; design: species or system Ifnar1^-/- mice; conditions: in vivo, ip
18f-NLuc reporter virus [10] = type: cell-based, Hepatitis A virus
HAV IRES = type: cell-based, Hepatitis A virus; conditions: 100 nM
293T cells = assay: Cytotoxicity in 293T cells
HAV [11] = conditions: cited from earlier work
Huh-7.5.1 cells [12] = assay: Cell viability in the chemical screen (Cell TiterGlo); conditions: 10 µM compound, 72 h

| Molecule | activity at 10 µM (18f-NLuc reporter virus [1]) | Viability Percent DMSO (Huh-7.5.1 cells [2]) | Viability Percent DMSO (Huh-7.5.1 cells [12]) | also measured |
| --- | --- | --- | --- | --- |
| NCCCNCCCCNCCCN [Spermine] | 96% | 112 Percent DMSO | – | – |
| CCc1cc(C(N)=O)ccc1-n1nc(C(C)C)c2c(-n3cnc(-c4cnn(C)c4)c3)ccnc21 [TAS116] | – | – | – | Blocking of HAV replication (in words) (HM175/18f virus [3]): highly active; CC50 (in vitro): 835 nM; IC50 (HM175/18f virus [4]): 84.3 nM |
| NC12CC3CC(CC(C3)C1)C2 [Amantadine hydrochloride] | 87% | 111 Percent DMSO | – | – |
| CC(C)c1cc(-c2n[nH]c(=O)n2-c2ccc3c(ccn3C)c2)c(O)cc1O [STA9090] | – | – | – | Blocking of HAV replication (in words) (HM175/18f virus [3]): highly active; CC50 (in vitro): 147 nM; IC50 (HM175/18f virus [4]): 12.1 nM |
| NC(=O)c1ncn([C@@H]2O[C@H](CO)[C@@H](O)[C@H]2O)n1 [Ribavirin] | 112% | 117 Percent DMSO | – | – |
| Nc1nc(=O)n([C@@H]2CS[C@H](CO)O2)cc1F [Emtricitabine] | 120% | 123 Percent DMSO | – | – |
| N#Cc1ccc(COC[C@H]2O[C@@H](n3c(NCc4ccc(Cl)c(Cl)c4)nc4c(N)ncnc43)[C@H](O)[C@@H]2O)cc1 [VER155008] | – | – | – | Anti-HAV activity relative to CC50 (in words) (18f-NLuc reporter virus [5]): only at concentrations close to their CC50; IC50 (18f-NLuc reporter virus [5]): 3320 nM; CC50 (Huh-7.5 cells): > 10000 nM |
| Cc1c(-c2cnccn2)ssc1=S [Oltipraz] | 113% | 90 Percent DMSO | – | – |
| COc1cccc(-c2cc(F)ccc2[C@H]2Cc3nc(N)nc(C)c3C(=O)N2)n1 [HSP990] | – | – | – | IC50 (HM175/18f virus [3]): 2.2 nM; Blocking of HAV replication (in words) (HM175/18f virus [3]; targeted screen of heat shock protein inhibitors, RT-qPCR): highly active; CC50 (Huh-7.5.1 cells [6]): 56.9 nM |
| C=CCNC1=C2C[C@@H](C)C[C@H](OC)[C@H](O)[C@@H](C)/C=C(\C)[C@H](OC(N)=O)[C@@H](OC)/C=C\C=C(/C)C(=O)NC(=CC1=O)C2=O [17-AAG] | – | – | – | IC50 (HAV [7]): 3.2 nM; IC50 (18f-NLuc reporter virus [8]): 11.7 nM; Area occupied by IBA-positive cells in liver section [9]: significantly reduced; Increase in serum alanine aminotransferase (ALT) activity versus vehicle [9]: significantly lower; Inflammatory cell infiltrates in liver sections (H&E) [9]: notably fewer and smaller in size; Number of IBA1-positive cells in liver section [9]: significantly reduced; Viral RNA in feces versus vehicle [9]: significantly reduced; Viral RNA in liver versus vehicle [9]: significantly reduced; Viral RNA in serum versus vehicle [9]: significantly reduced; NLuc expression at 48 hours post-infection (18f-NLuc reporter virus [10]): neither case did either HSP90 inhibitor reduce NLuc expression; GFP synthesis from circRNA HAV IRES reporter (HAV IRES): neither geldanamycin nor 17-AAG inhibited; also recorded: had no effect; Fold by which IC50 is below CC50 (HM175/18f virus [3]; hepatocyte-derived cells, RT-qPCR): approximately 30 fold; IC50 (HM175/18f virus [3]): 14.2 nM; CC50 (Huh-7.5.1 cells [6]): 418 nM; CC50 (293T cells): > 1000 nM |
| JG98 | – | – | – | Anti-HAV activity relative to CC50 (in words) (18f-NLuc reporter virus [5]): only at concentrations close to their CC50; IC50 (18f-NLuc reporter virus [5]): 534 nM; CC50 (Huh-7.5 cells): > 1000 nM |
| S=C(NCCc1ccccn1)Nc1ccc(Br)cn1 [Trovirdine] | 71% | 165 Percent DMSO | – | – |
| COC(=O)N[C@H](C(=O)NNC[C@H](O)[C@H](Cc1ccccc1)NC(=O)[C@@H](NC(=O)OC)C(C)(C)C)C(C)(C)C [Des(benzylpyridyl) Atazanavi] | – | 159 Percent DMSO | – | Normalized HAV production (18f-NLuc reporter virus [1]): 0.67 |
| Cc1ccc(NC(=O)C(=O)NC2CC(C)(C)NC(C)(C)C2)cc1 [YYA-021] | – | 121 Percent DMSO | – | Normalized HAV production (18f-NLuc reporter virus [1]): 1.03 |
| COc1ccccc1[C@H](Cn1c(=O)n(C(C)(C)C(=O)O)c(=O)c2c(C)c(-c3ncco3)sc21)OC1CCOCC1 [firsocostat] | – | – | – | HAV replication in cell culture (in words) (HAV [11]): potently inhibits |
| C=C1CC[C@@H]2[C@](C)(COC(=O)CCC(=O)[O-])[C@H](OC(=O)CCC(=O)O)CC[C@@]2(C)[C@@H]1/C=C/C1=CCOC1=O.[K+] [Dehydroandrographolide Succinate Potasium Salt] | – | 102 Percent DMSO | – | Normalized HAV production (18f-NLuc reporter virus [1]): 1.19 |

| Molecule | activity at 10 µM (18f-NLuc reporter virus [1]) | Viability Percent DMSO (Huh-7.5.1 cells [2]) | Viability Percent DMSO (Huh-7.5.1 cells [12]) | also measured |
| --- | --- | --- | --- | --- |
| CC(C)CN(C[C@@H](O)[C@H](Cc1ccccc1)NC(=O)O[C@H]1CO[C@H]2OCC[C@H]21)S(=O)(=O)c1ccc(N)cc1 [Darunavir] | 99% | 106 Percent DMSO | – | – |
| CC(C)OC(=O)[C@H](C)N[P@](=O)(CO[C@H](C)Cn1cnc2c(N)ncnc21)Oc1ccccc1 [Tenofovir alafenamide] | 141% | 75 Percent DMSO | – | – |
| Clc1ccc(C(Cn2ccnc2)OCc2ccsc2Cl)c(Cl)c1 (stereo not shown) [Vagistat] | 109% | 93 Percent DMSO | – | – |
| Vitamin E | – | 97 Percent DMSO | – | Normalized HAV production (18f-NLuc reporter virus [1]): 1.19 |
| CC(C)c1cc(Oc2c(Cl)cc(-n3nc(C#N)c(=O)[nH]c3=O)cc2Cl)n[nH]c1=O [MGL3196] | 136% | – | 118 Percent DMSO | – |
| CC1(C)CC[C@]2(C(=O)O)CC[C@]3(C)C(=CC[C@@H]4[C@@]5(C)CC[C@H](O)C(C)(C)[C@@H]5CC[C@]43C)[C@@H]2C1 [Oleanolic Acid] | 82% | – | 118 Percent DMSO | – |
| C=C(C)[C@@H]1CC[C@]2(C(=O)O)CC[C@]3(C)[C@H](CC[C@@H]4[C@@]5(C)CC[C@H](O)C(C)(C)[C@@H]5CC[C@]43C)[C@@H]12 [Betulinic acid] | 75% | – | 116 Percent DMSO | – |
| CC(=O)Oc1ccccc1C(=O)Nc1ncc([N+](=O)[O-])s1 [Nitazoxanide] | 24% | – | 41 Percent DMSO | – |
| COC[C@H]1C[C@@H](c2ncc(-c3ccc4c(c3)COc3cc5c(ccc6nc([C@@H]7CC[C@H](C)N7C(=O)[C@@H](NC(=O)OC)C(C)C)[nH]c65)cc3-4)[nH]2)N(C(=O)[C@H](NC(=O)OC)c2ccccc2)C1 [Velpatasvir] | 52% | – | 121 Percent DMSO | – |
| Nc1ncnc2c1ncn2[C@@H]1O[C@H](COP(=O)(O)O)[C@@H](O)[C@H]1O.O [Adenosine 5'-monophosphate monohydrate] | 93% | – | 115 Percent DMSO | – |
| Cc1ccnc2c1NC(=O)c1cccnc1N2C1CC1 [Nevirapine] | 104% | – | 100 Percent DMSO | – |
| Cc1nc(N(C)C(=O)Cc2ccc(-c3ccccn3)cc2)sc1S(N)(=O)=O [Pritelivir] | 78% | – | 127 Percent DMSO | – |
| NC(=O)c1nc(F)c[nH]c1=O [Favipiravir] | 56% | – | 128 Percent DMSO | – |
| CC(C)(C)Oc1cccc2nc(N)nc(N)c12 [HZ-1157] | – | 16 Percent DMSO | – | Normalized HAV production (18f-NLuc reporter virus [1]): 2.12 |
| O=C(O)c1ccccc1C(=O)Nc1ccc(S(=O)(=O)Nc2nccs2)cc1 [Phthalylsulfathiazole] | 83% | – | 112 Percent DMSO | – |
